Reference: patent publication US20070275100A1, “Use of gaseous nitric oxide as an anti-cancer agent” (priority 1998, published 2007)
Values joined by “and” are separate entries in the source; they are usually repeats but may differ in a detail not shown here. Equal values may be shown once.

Assays:
[1] = test system: extra cellular M. tuberculosis; experiment: Exposure of extracellular M. tuberculosis to NO; type: cell-based; conditions: exogenous NO
Text: Further, it may be inferred that the large population of extracellular bacilli in patients with cavitary pulmonary tuberculosis are also vulnerable to exogenous (inhaled) NO.

[2] = test system: NCI-H460; experiment: MTS cell proliferation assay, 25,000 ppm gNO (Example 4), NCI-H460; type: cell-based, human
Text: (§1) The purpose of this example is to illustrate the tumorcidal activity of high-dosage gNO. We examined the cellular sensitivity to 25,000 ppm of gNO on 5 non-small cell lung cancer (NSCLC) cells lines by an MTS cell proliferation assay.
(§2) Human lung cancer cell lines A549, NCI-H23, NCI-H460, HTB-58, H2170, and H441 (commercially available from American Type Culture Collection (“ATCC”), Manassas, Va.) were maintained in culture medium recommended by ATCC. All media were supplemented with 1% penicillin/streptomycin and 10% fetal bovine serum (commercially available from Invitrogen Gibco-BRL, Burlington, Ontario, Canada). […]
(§3) After 24 hours, the A549, NCI-H23, NCI-H460, HTB-58, H2170 and H441 cells were treated with 25,000 ppm gNO or air (control) for 1 minute, 3 minutes, 6 minutes, 9 minutes, 10 minutes, 20 minutes, and 30 minutes. Immediately following treatment, the viability of the cells was determined using a colorimetric MTS (3-(4,5-dimethylthiazol-2-yl)-5-(3-carboxymethoxyphenyl)-2-(4-sulfophenyl)-2H-tetrazolium, inner salt) cell proliferation assay (commercially available as the CellTiter 960 Aqueous One Solution Cell Proliferation Assay (MTS) from Promega, Madison, Wis., USA) according to the manufacturer's protocol. […] Absorbance was measured at 490 nm for each well using a micro-plate reader (commercially available from Dynex Technologies, Chantilly, Va., USA). […]

[3] = test system: NCI-H23; experiment: MTS cell proliferation assay, 25,000 ppm gNO (Example 4), NCI-H23; type: cell-based, human
Text: as §1, §2, §3

[4] = test system: squamous lung cancer cells (H2170); experiment: Viability under 25,000 ppm gNO (Example 5), H2170; type: cell-based; conditions: Homo sapiens, NCI-H2170, 0.1 h, after 6 minutes, FIG. 8 D
Protocol: After 24 hours, the A549, NCI-H23, NCI-H460, HTB-58, H2170 and H441 cells were treated with 25,000 ppm gNO or air (control) for 1 minute, 3 minutes, 6 minutes, 9 minutes, 10 minutes, 20 minutes, and 30 minutes. Immediately following treatment, the viability of the cells was determined using a colorimetric MTS (3-(4,5-dimethylthiazol-2-yl)-5-(3-carboxymethoxyphenyl)-2-(4-sulfophenyl)-2H-tetrazolium, inner salt) cell proliferation assay (commercially available as the CellTiter 960 Aqueous One Solution Cell Proliferation Assay (MTS) from Promega, Madison, Wis., USA) according to the manufacturer's protocol. Briefly, […] of MTS solution was added to each well and the cells were incubated for 2 hours at 37° C. Absorbance was measured at 490 nm for each well using a micro-plate reader (commercially available from Dynex Technologies, Chantilly, Va., USA). The relative percentage of cell survival (viability) was calculated by dividing the absorbance of treated cells by that of control cells for each experimental time point.
The purpose of this example is to illustrate the effects on normal human cell lines compared to the effects on cancerous cell lines of high-dosage gNO. The above study was repeated. […]

[5] = test system: A549-epithelial lung carcinoma cells; experiment: MTS proliferation assay, A549 cells under continuous gNO exposure (Example 1); type: cell-based, human; conditions: for Corrected Average: blank subtracted; for survivability: 24 hours continuous exposure, compared to air (control)
Protocol: (gNO) 200 ppm and 350 ppm compared to air (control) on the survival of a representative line of cancer cells. Cancer cell lines (A549-epithelial lung carcinoma cells and H460-epithelial metastatic; large cell lung cancer cells) were prepared in F12 medium and suspended in six 96-well plates (3 treatment and 3 controls). […] The plates then were removed and cell viability assessed by an MTS proliferation assay.
When exposed to 350 ppm of gNO, however, cancer cell survival rates decrease dramatically.

[6] = 200 ppm NO, 1 hour, F12 medium, listed as NO
[7] = 200 ppm NO, 1 hour, HBSS medium
[8] = 200 ppm NO, 2.5 hours, F12 medium
[9] = 200 ppm NO, 2.5 hours, F12 medium, listed as NO
[10] = 200 ppm NO, 2.5 hours, HBSS medium
[11] = 200 ppm NO, 3.5 hours, F12 medium
[12] = 200 ppm NO, 3.5 hours, F12 medium, listed as NO
[13] = 200 ppm NO, 3.5 hours, HBSS medium
[14] = 350 ppm NO, 2 hours, F12 medium
[15] = 350 ppm NO, 2 hours, F12 medium, listed as NO

[N]=O [gNO, nitric oxide]
mycobacteriocidal action [1]: powerful dose-dependent and time-dependent mycobacteriocidal action | IC50 (exposure time) [2]: about 7 minutes | IC50 (exposure time) [3]: about 6 minutes | viability at 25000 ppm ([3]; Homo sapiens, NCI-H23, 0.15 h, at 9 minutes): ~24% | viability at 25000 ppm [4]: < 10% | Average ([5]; 200 ppm NO, 1 hour, F12 medium): 0.852 | Survival ([5]; 200 ppm NO, 1 hour, F12 medium): up to 92% | Corrected Average ([5]; 200 ppm NO, 1 hour, F12 medium): 0.621 | MTS assay reading, individual wells [5, 6]: 0.842 and 0.955 and 0.793 and 0.818 and 0.828 and 0.78 and 0.805 and 0.936 and 0.959 and 0.91 and 0.827 and 0.8 and 0.795 and 0.759 and 0.945 and 0.886 | Survival [5, 6]: 92% | Average [5, 7]: 0.06 | MTS assay reading, individual wells [5, 7]: 0.062 (2×) and 0.058 (2×) and 0.057 (2×) and 0.056 (2×) and 0.06 (3×) and 0.067 (2×) and 0.059 and 0.055 | Survival [5, 7]: 0% | Corrected Average [5, 7]: 0 | Average [5, 8]: 1.276 | Survival [5, 8]: up to 90% | Corrected Average [5, 8]: 0.918 | MTS assay reading, individual wells [5, 9]: 1.261 and 1.178 and 1.33 and 1.422 and 1.454 and 1.458 and 1.354 and 1.105 and 1.348 and 1.082 and 1.329 and 1.237 and 1.272 and 0.995 and 1.284 and 1.299 | Survival [5, 9]: 90% | Average [5, 10]: 0.06 | MTS assay reading, individual wells [5, 10]: 0.063 and 0.059 (3×) and 0.058 (2×) and 0.061 and 0.06 (2×) and 0.069 (2×) and 0.057 (2×) and 0.056 and 0.062 | Survival [5, 10]: 0% | Corrected Average [5, 10]: 0 | Average [5, 11]: 1.529 | Survival [5, 11]: up to 87% | Corrected Average [5, 11]: 1.059 | MTS assay reading, individual wells [5, 12]: 1.587 and 1.525 and 1.665 and 1.444 and 1.642 and 1.332 and 1.639 and 1.551 and 1.567 and 1.863 and 1.335 and 1.325 and 1.575 and 1.227 and 1.561 and 1.625 | Survival [5, 12]: 87% | Average [5, 13]: 0.061 | MTS assay reading, individual wells [5, 13]: 0.063 (2×) and 0.059 (3×) and 0.058 (3×) and 0.061 (2×) and 0.06 and 0.069 and 0.057 and 0.056 and 0.07 | Survival [5, 13]: 0% | Corrected Average [5, 13]: 0 | survivability ([5]; 200 ppm gNO): greater than 90% | Average [5, 14]: 0.110 | Survival [5, 14]: about 2% | Corrected Average [5, 14]: 0.009 | MTS assay reading, individual wells [5, 15]: 0.104 and 0.115 and 0.106 (2×) and 0.110 and 0.116 and 0.119 | Survival [5, 15]: 1% | survivability ([5]; 350 ppm gNO): 1%
